Patent US6310093A (priority 1998, dated 2001)
Values joined by “and” are separate entries in the source; they are usually repeats but may differ in a detail not shown here. Equal values may be shown once. Read-outs that look alike come from different tables or passages of the source.

Key:
[1] = system: ischemic penumbra (dialysate glutamate); test: In vivo microdialysis of ischemic penumbra after MCAO; set-up: species or system rat; settings: 10 mM glutamine plus 20 mM sodium phosphate, 1 h; ±115%
Protocol: In further microdialysis experiments, exogenous glutamine was added to the ischemic penumbra via the probe, and dialysis glutamate was measured, as described in Example 7. When 10 mM glutamine plus 20 mM sodium phosphate were perfused into the penumbra for one hour, dialysate glutamate was elevated 315% as compared to control (±115%). […] The effects on glutamate were much more pronounced than on other amino acids measured; therefore, these studies provided further support for the involvement of extracellular glutaminase activity in producing the elevated levels of glutamate in cortical tissue undergoing ischemic damage.
The middle cerebral arteries of rats were occluded as in EXAMPLE 7, and the rats were returned to their cages overnight. The next morning, dialysis probes ([…], 2 mm length, 20,000 dalton cutoff) were inserted into ischemic penumbra (cortex) and perfused with artificial CSF at 3 μl/min for 1 h prior to collection of 10 minute fractions of dialysate. The effectiveness of the occlusion and the placement of probes were verified by TTC staining of 1 mm sections at the conclusion of the experiment. Amino acids in the dialysate were measured by reverse phase HPLC with fluorescence detection, after derivatization of the dialysates with o-phthaldialdehyde and N-acetyl-L-cysteine […]

[2] = system: mixed neuronal-astrocyte cultures; test: cells; settings: Mus musculus
glutaminase = settings: Kovacevic and McGiven, 1983; read-out: Km of glutaminase for glutamine; cited from earlier work
[3] = system: glial cultures (astrocytes); test: Glutamate and cell death in glial cultures exposed to hypoxia with glutamine; assay type: cell-based, mouse (Swiss Webster); settings: for Glu: hypoxia, 2 mM Gln
Protocol: Measurements of glutamate and glutamine concentrations, as well as of the release of the cytoplasmic marker enzyme, lactate dehydrogenase (LDH), were made with the medium of mixed neuronal-astrocyte cultures exposed to hypoxic and control conditions, with and without the addition of 2 mM glutamine. For comparative purposes, the measurements were made in mixed cultures in which complete neuronal death was caused by a 5h exposure to 500 μM NMDA. The first glutamate measurement was made at the end of hypoxia (5h with mixed cultures, 7h with astrocytes), and the second at 19 h after the subsequent return of oxygen. If added, glutamine was present during and after hypoxia. LDH released by the experimental treatment was measured at 24 h, and is expressed as a percentage of the total cellular content (neurons in mixed cultures, and glia in glial cultures). To verify the neuronal origin of LDH and glutamate, similar experiments were performed on cultures that only contained glia.
Astrocytes were cultured from cortical cell suspensions from 1-2 day old Swiss Webster mouse pups. Mixed cultures of neurons and astrocytes were obtained by plating cortical neurons from embryonic day 15-16 mice on confluent astrocyte monolayers. Pure neuronal cultures were made from the same embryonic cortical cell suspensions; astrocyte growth was inhibited by adding cytosine arabinoside and decreasing serum in the medium. For survival, neuronal cultures were fed with glial conditioned medium. Neuronal cultures were used for experiments at 11-15 days in vitro, and mixed cultures at 13-15 days after plating the neurons.
Hypoxia was carried out at 37° C. in an anoxic chamber (<0.2% oxygen; Forma Scientific). Before each experiment, the medium was pre-equilibrated with an anoxic gas mixture containing 5% CO2, 85% N2 and 10% H2 and incubated at 37° C. […] The oxygen tension in the anoxic chamber was monitored using an oxygen electrode (Model MI-730; Microelectrodes Inc.). […]

[4] = system: mixed neuronal-astrocyte cultures

NC(=O)CC[C@H](N)C(=O)O [Gln, glutamine]
dialysate glutamate elevation vs control [1]: 315%
cytotoxicity at 2000 µM ([2]; 7 h, read-out: neuronal LDH release): 48.5 ± 14.4%
cytotoxicity at 2000 µM ([2]; 24 h, read-out: % cell death (LDH)): 42.2%
cytotoxicity at 2000 µM ([2]; read-out: neuronal death in hypoxia with added glutamine): ~40%
Km (glutaminase): 2 to 8 mM
cytotoxicity at 2000 µM ([3]; Mus musculus, Astrocyte, 24 h, read-out: % cell death (LDH)): 2 to 5%
Glu ([3]; 7 h): 0.39 ± .09 µM
Glu ([3]; 24 h): 0.39 ± 0.07 µM
Glu [4]: 3.1 ± 0.28 and 3.88 ± 0.14
medium glutamate [4]: 2.3 ± 1.1 μM Glu
